Reference: US20110177950A1, “Imidazole and Triazole Compounds, Their Use and Agents Containing the Same” (priority 2008, published 2011)

What was measured:
[1] = tested on: Botrytis cinerea; test: Comparison with the prior art: C1 activity against gray mold pathogen in the microtiter test; format: cell-based; details: day 7 after inoculation, 405 nm
[2] = tested on: Phakopsora pachyrhizi; test: Curative activity against soybean rust (greenhouse, Example G1); format: in vivo; details: soybean seedlings, curative spray 300 ppm two days after inoculation, assessed after further 10 days; untreated 90% infected
Procedure: The active compounds were prepared separately as a stock solution comprising 25 mg of active compound which was made up to 10 ml using a mixture of acetone and/or DMSO and the emulsifier Uniperol® EL (wetting agent having emulsifying and dispersing action based on ethoxylated alkylphenols) in a volume ratio of solvent/emulsifier of 99/1. The mixture was then made up to 100 ml with water. This stock solution was diluted with the solvent/emulsifier/water mixture described to the active compound concentration stated below. Alternatively, the active compounds were used as commercially finished formulation and diluted with water to the stated active compound concentration.
Curative activity against soybean rust caused by Phakopsora pachyrhizi Leaves of potted soybean seedlings were inoculated with a spore suspension of soybean rust (Phakopsora pachyrhizi). The pots were then placed in a chamber with high atmospheric humidity (90 to 95%) and at 23 to 27° C. for 24 hours. During this time, the spores germinated and the germ tubes penetrated into the leaf tissue. The infected plants were then cultivated further in a greenhouse at temperatures between 23 and 27° C. and 60 to 80% relative atmospheric humidity. […] The extent of the rust fungus development on the leaves was then determined visually in % infection.

Structure (SMILES) | Growth (%) at 8 ppm C1 [1] | rust fungus development on the leaves in % infection [2]
CC(C)(C)C(O)C(C/C=C/c1ccccc1F)n1cncn1 (stereo not drawn) | 16% | –
CC(=CCC(C(O)C(C)(C)C)n1cncn1)c1ccc(F)cc1F (mixture of isomers) [I.A9] | – | 0%
CC(C)(C)C(O)C(C/C=C/c1ccccc1)n1cncn1 (stereo not drawn) [reference compound] | 84% | –
